pIC50: −log10 of the molar value.
Tested on: 282377-053-R-J1-PDC complex spheroid viability
Assay: Anticancer human tumor 282377-053-R-J1-PDC patient-derived colon adenocarcinoma cell line growth inhibition [RAS]
Conditions: for viability, T/C: stronger effect = lower value
Procedure, shortened: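 Multi-cell-type spheroids: tumor cells plus HUVEC endothelial cells and mesenchymal stem cells. RAS-pathway inhibitors were combined with targeted agents, each dosed in half-log steps down from clinical Cmax, or from 10 microM when Cmax was unknown.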
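Also: spheroids exposed to agents for seven days before readout.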
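For viability, T/C in this document: luminescence viability as percent of DMSO vehicle control wells.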

## Nc1ccn(C2OC(CO)C(O)C2(F)F)c(=O)n1 (stereo not given) + CCn1c(-c2cc(N3CCN(C)CC3)cnc2C(C)OC)c2c3cc(ccc31)-c1csc(n1)CC(NC(=O)C1CC1C)C(=O)N1CCCC(N1)C(=O)OCC(C)(C)C2
Curve of first compound, second compound 0.000949 µM
  pIC50: < 6.00
Curve of first compound, second compound 0.003 µM
  pIC50: < 6.00
Curve of first compound, second compound 0.00949 µM
  pIC50: < 6.00
Curve of first compound, second compound 0.03 µM
  pIC50: < 6.00
Curve of first compound, second compound 0.0949 µM
  pIC50: < 6.00
Curve of first compound, second compound 0.3 µM
  pIC50: < 6.00
Second compound 0.000949 µM, first compound 0.00316 µM
  viability, T/C: 107%
Second compound 0.000949 µM, first compound 0.01 µM
  viability, T/C: 95.1%
Second compound 0.000949 µM, first compound 0.0316 µM
  viability, T/C: 120%
Second compound 0.000949 µM, first compound 0.1 µM
  viability, T/C: 107%
Second compound 0.000949 µM, first compound 0.316 µM
  viability, T/C: 101%
Second compound 0.000949 µM, first compound 1 µM
  viability, T/C: 66.8%
Second compound 0.003 µM, first compound 0.00316 µM
  viability, T/C: 90%
Second compound 0.003 µM, first compound 0.01 µM
  viability, T/C: 110%
Second compound 0.003 µM, first compound 0.0316 µM
  viability, T/C: 106%
Second compound 0.003 µM, first compound 0.1 µM
  viability, T/C: 111%
Second compound 0.003 µM, first compound 0.316 µM
  viability, T/C: 93.8%
Second compound 0.003 µM, first compound 1 µM
  viability, T/C: 64.6%
Second compound 0.00949 µM, first compound 0.00316 µM
  viability, T/C: 116%
Second compound 0.00949 µM, first compound 0.01 µM
  viability, T/C: 95.9%
Second compound 0.00949 µM, first compound 0.0316 µM
  viability, T/C: 129%
Second compound 0.00949 µM, first compound 0.1 µM
  viability, T/C: 107%
Second compound 0.00949 µM, first compound 0.316 µM
  viability, T/C: 96.4%
Second compound 0.00949 µM, first compound 1 µM
  viability, T/C: 69%
Second compound 0.03 µM, first compound 0.00316 µM
  viability, T/C: 104%
Second compound 0.03 µM, first compound 0.01 µM
  viability, T/C: 100%
Second compound 0.03 µM, first compound 0.0316 µM
  viability, T/C: 108%
Second compound 0.03 µM, first compound 0.1 µM
  viability, T/C: 115%
Second compound 0.03 µM, first compound 0.316 µM
  viability, T/C: 86.7%
Second compound 0.03 µM, first compound 1 µM
  viability, T/C: 71.5%
Second compound 0.0949 µM, first compound 0.00316 µM
  viability, T/C: 104%
Second compound 0.0949 µM, first compound 0.01 µM
  viability, T/C: 95.2%
Second compound 0.0949 µM, first compound 0.0316 µM
  viability, T/C: 100%
Second compound 0.0949 µM, first compound 0.1 µM
  viability, T/C: 106%
Second compound 0.0949 µM, first compound 0.316 µM
  viability, T/C: 123%
Second compound 0.0949 µM, first compound 1 µM
  viability, T/C: 72.5%
Second compound 0.3 µM, first compound 0.00316 µM
  viability, T/C: 120%
Second compound 0.3 µM, first compound 0.01 µM
  viability, T/C: 94.2%
Second compound 0.3 µM, first compound 0.0316 µM
  viability, T/C: 129%
Second compound 0.3 µM, first compound 0.1 µM
  viability, T/C: 131%
Second compound 0.3 µM, first compound 0.316 µM
  viability, T/C: 118%
Second compound 0.3 µM, first compound 1 µM
  viability, T/C: 108%

## CC(Nc1ccc2c(c1)OCCn1cc(N3C(=O)OCC3C(F)F)nc1-2)C(N)=O (stereo not given)
Compound 0.0316 µM
  viability, T/C: 94% [middle of 4 runs]
Compound 0.316 µM
  viability, T/C: 85.7% [middle of 4 runs]
Compound 1 µM
  viability, T/C: 87.3% [middle of 4 runs]
Compound 3.16 µM
  viability, T/C: 93.8% [middle of 4 runs]
Compound 10 µM
  viability, T/C: 84.6% [middle of 4 runs]
Curve of compound
  pIC50: < 5.00

## NC1c2ccccc2OC12CCN(c1cnc3c(N4CCCc5ncccc54)n[nH]c3n1)CC2 (stereo not given) + C#Cc1c(F)ccc2cc(O)cc(-c3ncc4c(N5CC6CCC(C5)N6)nc(OCC56CCCN5CC(F)C6)nc4c3F)c12
Curve of first compound, second compound 0.0316 µM
  pIC50: < 5.00
Curve of first compound, second compound 0.1 µM
  pIC50: < 5.00
Curve of first compound, second compound 0.316 µM
  pIC50: < 5.00
Curve of first compound, second compound 1 µM
  pIC50: < 5.00
Curve of first compound, second compound 3.16 µM
  pIC50: < 5.00
Curve of first compound, second compound 10 µM
  pIC50: < 5.00
Second compound 0.0316 µM, first compound 0.0316 µM
  viability, T/C: 92.2%
Second compound 0.0316 µM, first compound 0.1 µM
  viability, T/C: 91.7%
Second compound 0.0316 µM, first compound 0.316 µM
  viability, T/C: 111%
Second compound 0.0316 µM, first compound 1 µM
  viability, T/C: 104%
Second compound 0.0316 µM, first compound 3.16 µM
  viability, T/C: 88.3%
Second compound 0.0316 µM, first compound 10 µM
  viability, T/C: 67.5%
Second compound 0.1 µM, first compound 0.0316 µM
  viability, T/C: 90.7%
Second compound 0.1 µM, first compound 0.1 µM
  viability, T/C: 85.5%
Second compound 0.1 µM, first compound 0.316 µM
  viability, T/C: 99.2%
Second compound 0.1 µM, first compound 1 µM
  viability, T/C: 71.9%
Second compound 0.1 µM, first compound 3.16 µM
  viability, T/C: 110%
Second compound 0.1 µM, first compound 10 µM
  viability, T/C: 73%
Second compound 0.316 µM, first compound 0.0316 µM
  viability, T/C: 105%
Second compound 0.316 µM, first compound 0.1 µM
  viability, T/C: 87.4%
Second compound 0.316 µM, first compound 0.316 µM
  viability, T/C: 78.4%
Second compound 0.316 µM, first compound 1 µM
  viability, T/C: 95.6%
Second compound 0.316 µM, first compound 3.16 µM
  viability, T/C: 94.8%
Second compound 0.316 µM, first compound 10 µM
  viability, T/C: 78.7%
Second compound 1 µM, first compound 0.0316 µM
  viability, T/C: 83%
Second compound 1 µM, first compound 0.1 µM
  viability, T/C: 88.1%
Second compound 1 µM, first compound 0.316 µM
  viability, T/C: 106%
Second compound 1 µM, first compound 1 µM
  viability, T/C: 92.5%
Second compound 1 µM, first compound 3.16 µM
  viability, T/C: 85.1%
Second compound 1 µM, first compound 10 µM
  viability, T/C: 83%
Second compound 3.16 µM, first compound 0.0316 µM
  viability, T/C: 90.4%
Second compound 3.16 µM, first compound 0.1 µM
  viability, T/C: 96%
Second compound 3.16 µM, first compound 0.316 µM
  viability, T/C: 99.6%
Second compound 3.16 µM, first compound 1 µM
  viability, T/C: 86.5%
Second compound 3.16 µM, first compound 3.16 µM
  viability, T/C: 90.4%
Second compound 3.16 µM, first compound 10 µM
  viability, T/C: 77.1%
Second compound 10 µM, first compound 0.0316 µM
  viability, T/C: 115%
Second compound 10 µM, first compound 0.1 µM
  viability, T/C: 105%
Second compound 10 µM, first compound 0.316 µM
  viability, T/C: 108%
Second compound 10 µM, first compound 1 µM
  viability, T/C: 84.7%
Second compound 10 µM, first compound 3.16 µM
  viability, T/C: 109%
Second compound 10 µM, first compound 10 µM
  viability, T/C: 81.6%
